Experimental data: US20240246945A1, “NOVEL COMPOUND FOR CROP PROTECTANT” (LG CHEM, LTD., priority 2010, published 2024)

How the values were obtained:
Myzus persicae (Sulzer) [1] = assay: Insecticidal Activity Test 1 against Myzus persicae (Sulzer), foliar spray on potted peppers, approximately 5 ppm; format: in vivo; details: in Capsicum, 120 h, approximately 5 ppm drug solution in water, counted on day 5 after spraying, read-out: mortality rate rating
Source text: Insecticidal Activity Test 1 Against Myzus persicae (Sulzer)
(§1) Peppers were planted in plastic pots with a diameter of 8 cm and a height of 8 cm, Myzus persicae (Sulzer) was reproduced therein, and then the number of Myzus persicae (Sulzer) in each pot was investigated. Some of the compounds prepared in the examples were selected, the compound was dispersed in water to be diluted to approximately 5 ppm, thereby preparing a drug solution.
The drug solution was sprayed onto the foliage of the peppers planted in the pots using a hand sprayer and air-dried, and the pots were stored in a green house.
(§2) On day 5 after the drug spraying, the number of Myzus persicae (Sulzer) parasitic on each pepper was counted, a mortality rate was calculated from the following formula, and the rating of each compound was investigated.
(§3) [formula] • A rating: 90% to 100% mortality • B rating: 80% or more and less than 90% mortality • C rating: less than 80% mortality

Myzus persicae (Sulzer) [2] = assay: Insecticidal Activity Test 2 against Myzus persicae (Sulzer), foliar spray on potted peppers, approximately 25 ppm; format: in vivo; details: in Capsicum, 120 h, approximately 25 ppm drug solution in water, counted on day 5 after spraying, read-out: mortality rate rating
Source text: Insecticidal Activity Test 2 Against Myzus persicae (Sulzer)
as §1, with “25” for “5”
The drug solution was sprayed onto the foliage of the peppers planted in the pots and air-dried, and the pots were stored in a green house.
as §2, §3

SMILES	mortality at 5 µg/mL (Myzus persicae (Sulzer) [1]) [%]	mortality at 25 µg/mL (Myzus persicae (Sulzer) [2]) [%]
CCSc1ccccc1-c1nc(-c2ncc(C(=O)N(CC)c3cccnc3)n2C)no1 [Ia-1-1-43, N-ethyl-2-(5-(2-(ethylthio)phenyl)-1,2,4-oxadiazol-3-yl)-1-methyl-N-(pyridin-3-yl)-1H-imidazole-5-carboxamide]	90 to 100	–
CCN(C(=O)c1cnc(-c2nnc(C3CC3)o2)n1C)c1cccnc1 [Ia-1-3-2, 2-(5-cyclopropyl-1,3,4-oxadiazol-2-yl)-N-ethyl-1-methyl-N-(pyridin-3-yl)-1H-imidazole-5-carboxamide]	90 to 100	–
CCN(C(=O)c1cnc(-c2nnc(C)o2)n1C)c1cccnc1 [Ia-1-3-3, N-ethyl-1-methyl-2-(5-methyl-1,3,4-oxadiazol-2-yl)-N-(pyridin-3-yl)-1H-imidazole-5-carboxamide]	90 to 100	–
CCN(C(=O)c1cnc(C2=NOC(C)(C)N2C)n1C)c1cccnc1 [Ia-1-4-2, N-ethyl-1-methyl-N-(pyridin-3-yl)-2-(4,5,5-trimethyl-4,5-dihydro-1,2,4-oxadiazol-3-yl)-1H-imidazole-5-carboxamide]	90 to 100	–
CCN(C(=O)c1cnc(C2=NOC3(CCSCC3)N2C)n1C)c1cccnc1 [Ia-1-4-22, N-ethyl-1-methyl-2-(4-methyl-1-oxa-8-thia-2,4-diazaspiro[4.5]dec-2-en-3-yl)-N-(pyridin-3-yl)-1H-imidazole-5-carboxamide]	90 to 100	–
CCN(C(=O)c1cnc(C2=NOC(C3CC3)N2)n1C)c1cccnc1 (centres unmarked) [Ia-1-4-41, 2-(5-cyclopropyl-4,5-dihydro-1,2,4-oxadiazol-3-yl)-N-ethyl-1-methyl-N-(pyridin-3-yl)-1H-imidazole-5-carboxamide]	90 to 100	–
CCN(C(=O)c1cnc(C2=NOC(C)N2)n1C)c1cccnc1 (centres unmarked) [Ia-1-4-43, N-ethyl-1-methyl-2-(5-methyl-4,5-dihydro-1,2,4-oxadiazol-3-yl)-N-(pyridin-3-yl)-1H-imidazole-5-carboxamide]	90 to 100	–
CCC1NC(c2ncc(C(=O)N(CC)c3cccnc3)n2C)=NO1 (centres unmarked) [Ia-1-4-44, N-ethyl-2-(5-ethyl-4,5-dihydro-1,2,4-oxadiazol-3-yl)-1-methyl-N-(pyridin-3-yl)-1H-imidazole-5-carboxamide]	90 to 100	–
CCN(C(=O)c1cnc(C2=NC3(CCOCC3)ON2C)n1C)c1cccnc1 [Ia-1-5-2, N-ethyl-1-methyl-2-(2-methyl-1,8-dioxa-2,4-diazaspiro[4.5]dec-3-en-3-yl)-N-(pyridin-3-yl)-1H-imidazole-5-carboxamide]	90 to 100	90 to 100
CCN(C(=O)c1cnc(C2=NC3(CCC(C(F)(F)F)CC3)ON2C)n1C)c1cccnc1 (centres unmarked) [Ia-1-5-6, N-ethyl-1-methyl-2-(2-methyl-8-(trifluoromethyl)-1-oxa-2,4-diazaspiro[4.5]dec-3-en-3-yl)-N-(pyridin-3-yl)-1H-imidazole-5-carboxamide]	90 to 100	–
